One experiment relates to MRSA (ATCC number 43300). The experiment in a line: microbe, parasite or virus in culture. It is filed as cell-based, methicillin-resistant Staphylococcus aureus. To be noted: Staphylococcus aureus.
Experiment [1] has as its system S. aureus (ATCC number 29213). The experiment in a line: microbe, parasite or virus in culture. It is filed as cell-based.
The target in another experiment is FabI (Francisella tularensis subsp. tularensis, UniProt Q5NGQ3). Briefly: biochemical. Details: species or system F. tularensis subsp. tularensis Schu4.
Chain of FabI (Q5NGQ3 1-260 limits assumed): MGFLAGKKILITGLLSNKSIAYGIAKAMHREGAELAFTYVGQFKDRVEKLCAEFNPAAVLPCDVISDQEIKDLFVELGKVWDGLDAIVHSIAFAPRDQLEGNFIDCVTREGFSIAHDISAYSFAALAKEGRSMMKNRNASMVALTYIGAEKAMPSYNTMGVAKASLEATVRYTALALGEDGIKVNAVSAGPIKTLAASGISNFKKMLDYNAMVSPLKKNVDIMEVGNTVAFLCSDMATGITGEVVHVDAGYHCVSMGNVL
For a further experiment, the system named is S. aureus. Briefly: Cell viability as a function of time (measured with depolarization). Format: cell-based.
The test system of experiment [2] is B. anthracis, ΔANR strain. The experiment in a line: microbe, parasite or virus in culture. Format: cell-based. As to conditions: Bacillus anthracis.
The test system of experiment [3] is E. coli TolC-, an efflux defective mutant. The experiment in a line: microbe, parasite or virus in culture. It is filed as cell-based. As to conditions: Escherichia coli.
The test system of experiment [4] is E. coli (BW251113 strain). The experiment in a line: microbe, parasite or virus in culture. Format: cell-based. As to conditions: Escherichia coli.
Experiment [5] deals with F. tularensis, strain Utah 112. The experiment in a line: microbe, parasite or virus in culture. Format: cell-based. As to conditions: Francisella tularensis, UTAH112.
For another experiment, the target named is FtuFabI (Francisella tularensis subsp. tularensis, UniProt Q5NGQ3). The experiment in a line: biochemical. Further details: species or system F. tularensis subsp. tularensis Schu4.
Chain of FtuFabI (Q5NGQ3 1-260 limits assumed): as above
Another experiment relates to S. aureus membrane. Briefly: Membrane depolarization as a function of time. Format: cell-based.
Where [6] appears, read: read-out: Ki^1 (Experimental Ki).
[7] abbreviates: read-out: IC50, Inhibition of FabI.
Where [8] appears, read: read-out: Ki^2 (Calculated using the Cheng-Prusoff Equation).

Values after ≈ are worked out from the molar mass of the structure shown. Where two headings read alike, the source gives them in different places.

Broadly, the Ki is a dissociation constant, usually derived from enzyme kinetics or from competition with a known ligand. Usually IC50 stands for the midpoint of a concentration-inhibition curve. As for `COc1ccc(Cn2cnc3cc4c(cc32)CCCC4)cc1C` [Compound 9, 1-(4-methoxy-3-methylbenzyl)-5,6,7,8-tetrahydro-1H-naphtho[2,3-d]imidazole], the MIC with MRSA (ATCC number 43300) was 12.5 µg/mL (≈ 40.8 µM); in experiment [1], 6.3 µg/mL (≈ 20.6 µM); in experiment [1] (Staphylococcus aureus), 6.3 µg/mL (≈ 20.6 µM); in [2] it was 6.3 µg/mL (≈ 20.6 µM); in experiment [3], 4.7 µg/mL (≈ 15.3 µM); in experiment [4] it was above 12.5 µg/mL. Further, in experiment [5], the MIC is 3.1 µg/mL (≈ 10.1 µM). The MBC in experiment [1] (Staphylococcus aureus) was 25 µg/mL (≈ 81.6 µM); in experiment [2], 6.3 µg/mL (≈ 20.6 µM); in [3], 9.4 µg/mL (≈ 30.7 µM); in [5] it was 6.3 µg/mL (≈ 20.6 µM). Besides, the Ki is 0.13 ± 0.01 µM on FabI (setting [6]) and 0.11 µM at FtuFabI (setting [8]). Moreover, in the experiment on S. aureus, the “Cell viability (done at 2X MIC)” value is recorded as “Clearly bacteriostatic”. The concentration for half-maximal inhibition (IC50) on FtuFabI (read-out: IC50) and at FtuFabI (setting [7]) was 0.14 µM in each case. The “Depolarization (done at 2X MIC)” value in the experiment on S. aureus membrane is “Initially depolarizing (in first 60 min) but cells ‘recover’ and regain polarization compared to control with no compound”.

For `c1cc2c(cc1Cn1cnc3cc4c(cc31)CCCC4)OCO2` [Compound 14, 1-(benzo[d][1,3]dioxol-5-ylmethyl)-5,6,7,8-tetrahydro-1H-naphtho[2,3-d]imidazole], the MBC is above 25 µg/mL in the experiment with MRSA (ATCC number 43300), above 25 µg/mL in experiment [1] (Staphylococcus aureus), 25 µg/mL (≈ 81.6 µM) in experiment [3] and 18.8 µg/mL (≈ 61.4 µM) in experiment [5]. For the same compound, the MIC in the experiment on MRSA (ATCC number 43300) was 6.3 µg/mL (≈ 20.6 µM); in [1], 4.7 µg/mL (≈ 15.3 µM); in experiment [1] (Staphylococcus aureus), 4.7 µg/mL (≈ 15.3 µM); in [2], above 12.5 µg/mL; in experiment [3], 9.4 µg/mL (≈ 30.7 µM); in experiment [4] it was above 12.5 µg/mL. The MIC in [5] came out at 4.7 µg/mL (≈ 15.3 µM). Further, the Ki on FabI (setting [6]) is 0.33 ± 0.04 µM; on FtuFabI (setting [8]), 0.26 µM. In addition, in the experiment with S. aureus, the “Cell viability (done at 2X MIC)” value was “Clearly bacteriostatic”. The IC50 on FtuFabI (read-out: IC50) and at FtuFabI (setting [7]) was 0.32 µM each time. Moreover, the “Depolarization (done at 2X MIC)” value in the experiment on S. aureus membrane is given as “Clearly no depolarization seen”.

For `CC(c1ccc(Cl)c(Cl)c1)n1cnc2cc3c(cc21)CCCC3` (stereo not shown) [Compound 4, 1-(1-(3,4-dichlorophenyl)ethyl)-5,6,7,8-tetrahydro-1H-naphtho[2,3-d]imidazole], the MBC against MRSA (ATCC number 43300) was 25 µg/mL (≈ 72.4 µM); in [1] (Staphylococcus aureus) it was 25 µg/mL (≈ 72.4 µM); in experiment [2], 3.1 µg/mL (≈ 8.98 µM); in experiment [3], above 25 µg/mL; in [5] it was 25 µg/mL (≈ 72.4 µM). Moreover, the MIC in the experiment with MRSA (ATCC number 43300) is 3.1 µg/mL (≈ 8.98 µM); in [1] it was 3.1 µg/mL (≈ 8.98 µM); in experiment [1] (Staphylococcus aureus) it was 3.1 µg/mL (≈ 8.98 µM); in experiment [2] it was 3.1 µg/mL (≈ 8.98 µM); in experiment [3] it was 3.1 µg/mL (≈ 8.98 µM); in experiment [4] it was above 12.5 µg/mL. The same compound yielded an MIC in [5] of 3.1 µg/mL (≈ 8.98 µM). Further, the figures for the Ki on FabI and on FtuFabI were 0.57 ± 0.14 µM and 0.51 µM, respectively. Further, in the experiment on S. aureus, the “Cell viability (done at 2X MIC)” value was “Clearly bacteriostatic”. Also, on FtuFabI, it took 0.63 µM to reach half-maximal inhibition (IC50). Also, in the experiment with S. aureus membrane, the “Depolarization (done at 2X MIC)” value was “Initially depolarizing (in first 60 min) but cells ‘recover’ and regain polarization compared to control with no compound”.

Regarding `COc1ccc(Cn2cnc3cc4c(cc32)CCCC4)cc1OC` [Compound 10, 1-(3,4-dimethoxybenzyl)-5,6,7,8-tetrahydro-1H-naphtho[2,3-d]imidazole], the MIC (in the experiment on MRSA (ATCC number 43300); in [1] (Staphylococcus aureus); in experiment [2]; in experiment [3]; in experiment [4]; in experiment [5]) was above 12.5 µg/mL throughout. The results for the Ki at FabI (setting [6]) and on FtuFabI (setting [8]) were 1.43 ± 0.27 µM and 1.1 µM, respectively. Moreover, the IC50 at FtuFabI (read-out: IC50) and at FtuFabI (setting [7]) was 1.36 µM in each case.

(Values after US20150246888A1, “ENOYL REDUCTASE INHIBITORS WITH ANTIBACTERIAL ACTIVITY” (priority 2012, published 2015).)
